Reference: patent US10921327B2, “Probes for quantitative imaging of thiols in various environments” (Baylor College of Medicine, priority 2014, dated 2021)
“Also recorded” adds a separate entry of the source. Counter-ions that a name gives are not always drawn. Marks after values point to notes of the source that are not given here.

Experiments:
[1] = Solubility; type: physicochemical; settings: for solubility: PBS buffer, aqueous buffer
[2] = Reactivity of probes against β-mercaptoethanol in DMSO; type: binding
Method: (§1) Compounds 3b-d were dissolved in DMSO (10 mM) and 1 eq of 2 M β-mercaptoethanol (BME) was added. Compounds 3a and TQ Green were dissolved in PBS buffer (10 mM, pH 7.4) with 1% DMSO. GSH solution was added to reach a final concentration of 80 mM with compound 3a at 10 μM and TQ Green at 16 μM, respectively. All solutions were then monitored continuously with UV-Vis and fluorimeter for 2 hours (Table 1).

[3] = UV-Vis absorption, fluorescence and quantum yield; type: physicochemical; settings: for Quantum Yield (PBS): λex = 479 nm (TQ Green), 406 nm (TQ Green-GSH)
Excerpt: TQ Green absorbs at 479 nm and fluoresces at 590 nm (λex=488 nm, FIG. 3). The extinction coefficients of TQ Green and TQ Green-GSH at their maximum absorption wavelengths are (2.3±0.2)×10^4 M^−1·cm^−1 (a, =479 nm, Table 2) and (1.6±0.2)×10^4 M^−1·cm^−1 (λmax=407 nm, Table 1), respectively. Upon reacting with GSH, the Abs and Fl peaks shift hypsochromically to 406 and 463 nm (λex=405 nm), respectively. The Abs of TQ Green and TQ Green-GSH (the adduct between TQ Green and GSH) are close to 488 and 405 nm, respectively, which are two commonly used laser wavelengths for confocal microscopes. […]
NMR spectra were recorded on a Varian NMR (^1H at 400 MHz) spectrometer. Chemical shifts (δ) were given in ppm with reference to solvent signals [^1H NMR: CDCl3 (7.26), CD3OD (3.31)]. UV-Vis measurements were performed with 2×10 mm quartz cuvette in Cary 60 UV-is Spectrometer. Fluorescence measurements were performed with the same quartz cuvette in Cary Eclipse Fluorescence Spectrophotometer with an excitation slit of 5 nm, an emission slit of 10 nm and PMT at 650 V. Flash chromatography was performed on a Teledyne ISCO CombiFlashRf200. Olympus FV1000 laser scanning confocal microscope system was used for cell imaging. ESI mass spectrometry was measured on a BrukerMS microTOF ESI, at the Shared Equipment Authority at Rice University. Flow cytometry was performed on BD LSR II Flow Cytometer at BCM core facilities.
As summarized in Table 5, quantum yields of synthesized GSH probes and a GSH adduct with Rhodamine 123 as the standard were analyzed. Quantum yields were determined using a comparative method described previously. The bromine atom on the phenyl ring potentially enhances the push-pull effect of the coumarin-based fluorophore, thus increases the quantum yield.

[4] = Reaction kinetics and reversibility of probe with GSH (UV-Vis); settings: 10 mM GSH in PBS, room temperature; TQ Green 16 μM, probe 3a 10 μM
Method: The reaction between TQ Green and GSH is reversible.
The second-order rate constant between TQ Green and GSH is 0.150±0.001M^−1·s^−1. There were no appreciable Abs changes observed after 20 minutes. Following a pause for another 80 minutes to ensure that the equilibrium between TQ Green and GSH was fully established, Applicants added two equivalents of an irreversible Michael acceptor (5,6-dihydro-2H-pyran-2-one) to deplete all the GSH in solution (FIG. 4A).
GSH in PBS was added to a solution of TQ Green in PBS buffer (10 mM, pH 7.4) containing 1% DMSO. The final concentrations of GSH and TQ Green were 10 mM and 16 μM, respectively. The solutions were then monitored continuously with UV-Vis spectrometer (FIGS. 21A-D).

[5] = Equilibrium (dissociation constant) of probe and GSH reaction, UV-Vis/fluorescence; type: binding; settings: reaction with various concentration of GSH in water/PBS pH 7.4; based on UV-Vis; read-out: Kd′ observed (apparent) dissociation constant
Method: Applicants also determined Keq between TQ Green and GSH and the relationship of the ratiometric change as a function of GSH concentration. Kd′ is the apparent dissociation constant for the reaction between TQ Green and GSH. The following equation can be derived:
Plotting (R−Rmin)/(Rmax−R) as a function of GSH concentration afforded a superb linear relationship with r^2=0.999 (FIGS. 6-7).
TQ Green was dissolved in PBS buffer (10 mM, pH 7.4) containing 1% DMSO with concentration at 32 μM. GSH was dissolved in the same PBS buffer with concentration from 0-80 mM. Above solutions were mixed at 1:1 ratio. All solutions were protected with nitrogen and stored in glove box to prevent any oxygen entering the solution. Samples of all solutions were taken out at 1, 18, 72, and 144 hours after mixing. UV-Vis and fluorescence were measured for all solutions.
as §1

[6] = 10 mM solution, capped tube, 10 hour time period, HPLC 254 nm
Method: A GSH solution (10 mM) was placed in a capped Eppendorf tube. Samples of solution were taken out for HPLC measurement every two hours. […] The percentage was calculated from the HPLC peak area monitored at 254 nm.

[7] = cited from earlier work
[8] = methanol; cited from earlier work
[9] = system: PANC-1 cells; assay: GSH level changes in PANC-1 cells upon DEM treatment (TQ Green live imaging); type: cell-based
Method: PANC-1 cells were treated with diethyl maleate (50 μM) for 24 hours and 2 hours to inhibit and stimulate GSH levels, respectively. All the cells were imaged 24 hours after starting the experiment. Results are statistical analyses of more than 25 cells. P values shown are based on unpaired student t-tests. Error bars represent standard deviations.
Applicants also treated PANC-1 cells with DEM for a very short time to stimulate the uptake of cysteine, thus increasing the GSH levels. After removal of DEM, the cells were further incubated under normal conditions for an additional 22 hours before imaging. […] Importantly, the GSH level obtained in DEM non-treated cells after 24 hours was essentially the same as the value measured at time zero (P=0.63), indicating excellent reproducibility of live imaging based GSH quantification.
PANC-1 cells were incubated with DEM (50 μM) for 2 hours for stimulation of cysteine uptake. After replacing with fresh medium, cells were cultured at normal conditions for another 22 hours. A separate dish of PANC-1 cells were incubated with DEM (50 μM) as an inhibitor for 24 hours. […] GSH concentrations were calculated based on the calibration curve. FACS was performed from harvested cells after treatment, fluorescent intensities were recorded with 405 nm laser/420-460 nm filter (pacific blue channel), and 488 nm laser/515-545 nm filter (FITC channel). […]

[10] = Hydrolysis of TQ Green-AM in PBS and diluted HeLa cell lysate (HPLC UV-vis/MS); type: in vitro ADME; settings: 40 μM, 37° C.
Method: In order to allow TQ Green to efficiently penetrate into cells for GSH measurements, Applicants converted the carboxylic acid group to an acetoxymethyl (AM) ester (FIG. 10). Once inside cells, the AM ester will be readily hydrolyzed by esterases to regenerate TQ Green. To verify this, Applicants incubated TQ Green-AM (FIG. 11, 40 μM) in PBS for 2 hours and in a 500 times diluted HeLa cell lysate for 10 hours at 37° C. (Note: the dilution factor for the cell lysate is calculated based on the fact that ˜400,000 of HeLa cells, which have a total volume of ˜2 μL, were lysed in 1 mL of lysis buffer, resulting in 500 times dilution of cellular components, Table 3). A mixture of TQ Green and TQ Green-AM standard samples and the reaction mixtures after incubation in PBS and in cell lysate were separated using high performance liquid chromatography (HPLC) with a tandem of UV-vis and mass spectrometer (MS) detectors.
TQ Green-AM (40 μM) was incubated in PBS for 2 hours and in a 500 times diluted HeLa cell lysate for 10 hours at 37° C. The reaction products were analyzed by HPLC with a tandem of UV-vis and MS detectors. Analytical standards TQ Green and TQ Green-AM (red trace C) were used to determine the retention time of the corresponding compounds. […] Under the elution conditions used, TQ Green and TQ Green-GSH cannot be separated. However, their identities were confirmed by MS. […]

[11] = system: cells; assay: Confocal imaging of probe interacting with cells (cell penetration); type: cell-based
Method: FIG. 10 provides confocal images at 488 nm channel of TQ Green (acid form, FIG. 10A), and TQ Green-AM (ester form, FIG. 10B) interacting with cells.
All cell lines used in this study were purchased from American Type Culture Collection (ATCC) and grown in DMEM (Gibco, 11965) media supplemented with 10% FBS and 1% 1003 Pen Strep (Gibco). Cells were cultured under a controlled atmosphere (37° C., 5% CO2). Glass dishes were used for cell culture due to confocal scanning requirements. Cells were treated with TQ Green-AM (20 nM-1 μM with 0.0025-1% DMSO in PBS) for 30 minutes, followed by two washing steps with tryptan blue and PBS prior to imaging. Fluorescent images were acquired with 405 nm laser/430-470 nm filter and 488 nm laser/575-620 nm filter. All the microscope settings were kept consistent in each experiment.

[12] = Log D in octanol-PBS (pH 7.4) biphasic system; type: physicochemical; settings: pH 7.4, read-out: Log D, estimated value based on HPLC result
Excerpt: To further understand TQ Green distribution between hydrophobic and hydrophilic environments, Applicants measured the Log D values of TQ Green and TQ Green-GSH using an octanol-PBS (pH 7.4) biphasic system (Table 2). […] In addition, Applicants discovered that the absorbance maximum of TQ Green shifts from 480 nm to 455 nm when changing the solvents from PBS to octanol. Applicants hypothesize that if TQ Green is distributed in lipid membranes, the absorbance maximum and fluorescence intensity will change. […] Consistent with the Log D measurements, this experiment also supports the hypothesis that TQ Green accumulates in lipid membranes. Considering the high quantum yield of TQ Green in hydrophobic solvents, lipid enrichment of TQ Green seemingly complicates intracellular GSH quantification. […] However, the Kd′ values may be different under calibration conditions and inside cells, which may introduce a systemic error.

With `CCN(CC)c1ccc2cc(/C=C(\C)C(=O)c3ccccc3)c(=O)oc2c1` [Compound 3c] the solubility [1] was less than 10 µM and the “Michael addition between thiol and probe” value [2] was “significantly blocks the Michael addition”.
For `CCN(CC)c1ccc2cc(/C=C/C(=O)c3ccc(C(=O)O)cc3)c(=O)oc2c1` [Compound 3a], the “Quantum Yield (Methanol)” value ([3]; methanol, Rhodamine 123 as standard) was 0.062 ± 0.002, the “Time to reach 95% of conversion” value [4] was roughly 6 min and the Kd [5] was 1.5 mM. It also gave a solubility [1] greater than 500 µM.
With `N[C@@H](CCC(=O)N[C@@H](CS)C(=O)NCC(=O)O)C(=O)O` [GSH, glutathione] the Solubility in octanol [1] was “not soluble” and the “GSH oxidized in air” value [6] was “About 20%”.
For `FC(F)(F)c1ccc(S)cc1` [p-trifluorobenzenethiol], the pKa [7] is given as 5.5.
In the case of `COC(=O)c1ccccc1-c1c2ccc(=N)cc-2oc2cc(N)ccc12.Cl` [Rhodamine 123], the “Quantum Yield, used as standard” value [8] is listed as 0.94*.
In the case of `CCN(CC)c1ccc2cc(/C=C/C(=O)c3ccccc3)c(=O)oc2c1` [Compound 3b], the solubility [1] is reported as less than 10 µM.
With `CCOC(=O)/C=C\C(=O)OCC` [DEM, diethyl maleate] the “Increase in GSH levels” value ([9]; 50 μM for 2 hours, then 22 hours normal conditions (stimulation)) was 28% and the “Decrease in GSH levels” value ([9]; 50 μM for 24 hours (inhibition)) was 27%.
`CCN(CC)c1ccc2cc(/C=C/C(=O)c3ccccc3O)c(=O)oc2c1` [Compound 3d] gave a solubility [1] of less than 10 µM and a Kd ([2]; β-mercaptoethanol in DMSO, read-out: Kd′ observed dissociation constant) of roughly 2 mM.
For `CCN(CC)c1ccc2cc(/C=C/C(=O)c3ccc(C(=O)OCOC(C)=O)cc3Br)c(=O)oc2c1` [TQ Green-AM], the “Hydrolysis in diluted cell lysate” value ([10]; 500 times diluted HeLa cell lysate, 10 hours) was “completely converted to a mixture of TQ Green and TQ Green-GSH adduct; also recorded: completely hydrolyzed”, the “Hydrolysis in PBS” value ([10]; PBS, 2 hours) was “resistant to hydrolysis; also recorded: did not show appreciable hydrolysis” and the “Cell penetration (confocal, 488 nm channel)” value [11] was “able to penetrate through cell the membrane”.
For `CCN(CC)c1ccc2cc(C(CC(=O)c3ccc(C(=O)O)cc3Br)SCC(NC(=O)CCC(N)C(=O)O)C(=O)NCC(=O)O)c(=O)oc2c1` (stereo not shown) [TQ Green-GSH], the “Abs Max Wavelength” value ([3]; PBS pH 7.4) was 406 nm, the “Fl Emission Max Wavelength” value ([3]; PBS pH 7.4, λex = 488 nm (TQ Green), λex = 405 nm (TQ Green-GSH)) was 463 nm and the “Quantum Yield (PBS)” value [3] was 0.0059±0.0003. For the same compound, the “Quantum Yield (PBS)” value ([3]; listed as drawing 20) was 0.0059 ± 0.0003, the Solubility in methanol ([1]; methanol) was “^aTQ Green-GSH is not soluble in methanol” and the Solubility in octanol [1] was “not soluble”. It also gave a logD [12] of less than -1.
